Inconclusive results and toxic doses are left out.
Tested on: P388 leukemia ip, CD2F1 mice, survival T/C
Test: NCI In Vivo Anticancer Drug Screen. Data for tumor model P388 Leukemia (intraperitoneal) in CD2F1 (CDF1) mice
Conditions: endpoint: median survival time, higher = longer survival
Method in brief: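 Mice carrying the transplanted tumor received test compound or vehicle. Survival was recorded in each group, and the value is the treated-group measurement divided by that of the vehicle-treated control group.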

[1] = dose: 50.0 mg/kg/injection, schedule: Q01DX009 (ip), vehicle: saline
[2] = dose: 100.0 mg/kg/injection, schedule: Q01DX009 (ip), vehicle: saline
[3] = dose: 12.5 mg/kg/injection, schedule: Q01DX009 (ip), vehicle: saline with Tween-80
[4] = dose: 25.0 mg/kg/injection, schedule: Q01DX009 (ip), vehicle: saline with Tween-80
[5] = dose: 50.0 mg/kg/injection, schedule: Q01DX009 (ip), vehicle: saline with Tween-80
[6] = dose: 100.0 mg/kg/injection, schedule: Q01DX009 (ip), vehicle: saline with Tween-80
[7] = dose: 200.0 mg/kg/injection, schedule: Q01DX009 (ip), vehicle: saline with Tween-80
[8] = dose: 100.0 mg/kg/injection, schedule: Q04DX002 (ip), vehicle: Klucel (hydroxypropylcellulose) (HPC)
[9] = dose: 200.0 mg/kg/injection, schedule: Q04DX002 (ip), vehicle: Klucel (hydroxypropylcellulose) (HPC)
[10] = dose: 60.0 mg/kg/injection, schedule: Q01DX005 (ip), vehicle: saline with Tween-80
[11] = dose: 120.0 mg/kg/injection, schedule: Q01DX005 (ip), vehicle: saline with Tween-80
[12] = dose: 240.0 mg/kg/injection, schedule: Q01DX005 (ip), vehicle: saline with Tween-80
[13] = dose: 100.0 mg/kg/injection, schedule: Q01DX001 (ip), vehicle: saline with Tween-80
[14] = dose: 200.0 mg/kg/injection, schedule: Q01DX001 (ip), vehicle: saline with Tween-80
[15] = dose: 50.0 mg/kg/injection, schedule: Q01DX005 (ip), vehicle: Klucel (hydroxypropylcellulose) (HPC)
[16] = dose: 100.0 mg/kg/injection, schedule: Q01DX005 (ip), vehicle: Klucel (hydroxypropylcellulose) (HPC)
[17] = dose: 200.0 mg/kg/injection, schedule: Q01DX005 (ip), vehicle: Klucel (hydroxypropylcellulose) (HPC)
[18] = dose: 50.0 mg/kg/injection, schedule: Q01DX005 (ip), vehicle: saline with Tween-80
[19] = dose: 100.0 mg/kg/injection, schedule: Q01DX005 (ip), vehicle: saline with Tween-80
[20] = dose: 200.0 mg/kg/injection, schedule: Q01DX005 (ip), vehicle: saline with Tween-80
[21] = dose: 3.13 mg/kg/injection, schedule: Q01DX009 (ip), vehicle: saline with Tween-80
[22] = dose: 6.25 mg/kg/injection, schedule: Q01DX009 (ip), vehicle: saline with Tween-80

C=CC1(C)CCC2C(=CCC3C2(C)CC(O)C(O)C3(C)COC2OC(CO)C(O)C(O)C2O)C1 (centres undefined)
T/C (dose: 1.5 mg/kg/injection, schedule: Q01DX009 (ip), vehicle: Klucel (hydroxypropylcellulose) (HPC)): 103 % of control
T/C (dose: 3.0 mg/kg/injection, schedule: Q01DX009 (ip), vehicle: Klucel (hydroxypropylcellulose) (HPC)): 106 % of control
T/C (dose: 6.0 mg/kg/injection, schedule: Q01DX009 (ip), vehicle: Klucel (hydroxypropylcellulose) (HPC)): 116 % of control
T/C (dose: 12.0 mg/kg/injection, schedule: Q01DX009 (ip), vehicle: Klucel (hydroxypropylcellulose) (HPC)): 108 % of control
T/C (dose: 12.5 mg/kg/injection, schedule: Q01DX009 (ip), vehicle: saline): 99 % of control
T/C (dose: 24.0 mg/kg/injection, schedule: Q01DX009 (ip), vehicle: Klucel (hydroxypropylcellulose) (HPC)): 108 % of control
T/C (dose: 25.0 mg/kg/injection, schedule: Q01DX009 (ip), vehicle: saline): 100 % of control
T/C [1]: 98 % of control
T/C [2]: 93 % of control

O=C(NC1c2ccccc2CCc2ccccc21)C(F)(F)F
T/C [3]: 86 % of control
T/C [4]: 117 % of control
T/C [5]: 90 % of control
T/C [6]: 86 % of control
T/C [7]: 94 % of control

Cc1nc2scc(-c3ccc(Cl)cc3)n2c(=O)c1CN1CCCCC1
T/C (dose: 50.0 mg/kg/injection, schedule: Q04DX002 (ip), vehicle: Klucel (hydroxypropylcellulose) (HPC)): 97 % of control
T/C [8]: 95 % of control
T/C [9]: 97 % of control

Cc1cccc(NC(=O)Oc2ccc(Cl)cc2C(=O)c2ccccc2)c1
T/C [10]: 97 % of control
T/C [11]: 98 % of control
T/C [12]: 105 % of control

Nc1cc2cccc[n+]2c2ccccc12
T/C (dose: 3.75 mg/kg/injection, schedule: Q01DX005 (ip), vehicle: saline): 110 % of control
T/C (dose: 7.5 mg/kg/injection, schedule: Q01DX005 (ip), vehicle: saline): 106 % of control
T/C (dose: 15.0 mg/kg/injection, schedule: Q01DX005 (ip), vehicle: saline): 120 % of control

C=CCn1nc(-c2ccccc2)c(-c2ccccc2)n1
T/C (dose: 100.0 mg/kg/injection, schedule: Q04DX003 (ip), vehicle: saline with Tween-80): 98 % of control
T/C (dose: 200.0 mg/kg/injection, schedule: Q04DX003 (ip), vehicle: saline with Tween-80): 95 % of control
T/C (dose: 400.0 mg/kg/injection, schedule: Q04DX003 (ip), vehicle: saline with Tween-80): 89 % of control

Nc1nc(N)c2c(ccc3nc(-c4ccccc4)c(-c4ccccc4)nc32)n1
T/C [13]: 87 % of control
T/C [14]: 90 % of control

N#CC(CCCC(C#N)c1ccccc1)c1ccccc1 (centres undefined)
T/C (dose: 50.0 mg/kg/injection, schedule: Q01DX001 (ip), vehicle: Klucel (hydroxypropylcellulose) (HPC)): 106 % of control
T/C (dose: 100.0 mg/kg/injection, schedule: Q01DX001 (ip), vehicle: Klucel (hydroxypropylcellulose) (HPC)): 108 % of control

CC(C)(C)n1nc(C2CC2)cc1NC(=O)Nc1ccc(Cl)cc1
T/C [10]: 93 % of control
T/C [11]: 94 % of control
T/C [12]: 91 % of control

C[CH2][Ge]([Cl])([CH2]C)[c]1cc[c]([Ge]([Cl])([CH2]C)[CH2]C)cc1
T/C [15]: 98 % of control
T/C [16]: 96 % of control
T/C [17]: 99 % of control

NC(=S)N/N=C/c1cn(-c2ccc(N)cc2)cn1
T/C (dose: 25.0 mg/kg/injection, schedule: Q04DX003 (ip), vehicle: Klucel (hydroxypropylcellulose) (HPC)): 100 % of control
T/C (dose: 50.0 mg/kg/injection, schedule: Q04DX003 (ip), vehicle: Klucel (hydroxypropylcellulose) (HPC)): 91 % of control
T/C (dose: 100.0 mg/kg/injection, schedule: Q04DX003 (ip), vehicle: Klucel (hydroxypropylcellulose) (HPC)): 100 % of control

COC(=O)C1CSC(c2c(CO)cnc(C)c2O)N1 (centres undefined)
T/C (dose: 100.0 mg/kg/injection, schedule: Q04DX002 (ip), vehicle: saline + Tween-80 + alcohol): 105 % of control
T/C (dose: 200.0 mg/kg/injection, schedule: Q04DX002 (ip), vehicle: saline + Tween-80 + alcohol): 96 % of control
T/C (dose: 400.0 mg/kg/injection, schedule: Q04DX002 (ip), vehicle: saline + Tween-80 + alcohol): 107 % of control

O=C(O)c1cccc2c1-c1ccccc1C2=O
T/C (dose: 12.5 mg/kg/injection, schedule: Q01DX005 (ip), vehicle: Klucel (hydroxypropylcellulose) (HPC)): 94 % of control
T/C (dose: 25.0 mg/kg/injection, schedule: Q01DX005 (ip), vehicle: Klucel (hydroxypropylcellulose) (HPC)): 99 % of control
T/C [15]: 97 % of control
T/C [16]: 100 % of control
T/C [17]: 103 % of control

Cc1nn(-c2ccccc2)c([O-])c1[N+]#N
T/C [8]: 102 % of control
T/C [9]: 102 % of control
T/C (dose: 400.0 mg/kg/injection, schedule: Q04DX002 (ip), vehicle: Klucel (hydroxypropylcellulose) (HPC)): 100 % of control

COC(=O)C[CH2][Sn]([CH3])([CH3])[CH2]CC(=O)OC
T/C [15]: 104 % of control
T/C [16]: 100 % of control

CCOC(=O)CC1=CS/C(=C(/C#N)C(=O)OCC)S1
T/C [18]: 93 % of control
T/C [19]: 98 % of control
T/C [20]: 94 % of control

Fc1ccc(NC(=S)SCc2ccc(Cl)c(Cl)c2)c(F)c1
T/C (dose: 50.0 mg/kg/injection, schedule: Q01DX009 (ip), vehicle: suspension in saline): 93 % of control
T/C (dose: 100.0 mg/kg/injection, schedule: Q01DX009 (ip), vehicle: suspension in saline): 100 % of control
T/C (dose: 200.0 mg/kg/injection, schedule: Q01DX009 (ip), vehicle: suspension in saline): 88 % of control

CCC(O)(CC(=O)O)c1ccccc1 (centres undefined)
T/C [6]: 104 % of control
T/C [7]: 95 % of control

O=C1C=CC(=O)C1=Cc1ccc([N+](=O)[O-])o1
T/C (dose: 0.78 mg/kg/injection, schedule: Q04DX002 (ip), vehicle: saline with Tween-80): 106 % of control
T/C (dose: 1.56 mg/kg/injection, schedule: Q04DX002 (ip), vehicle: saline with Tween-80): 97 % of control
T/C (dose: 3.12 mg/kg/injection, schedule: Q04DX002 (ip), vehicle: saline with Tween-80): 97 % of control

CCOC(=O)C1(C(=O)OCC)N=C(c2ccccc2)C=C1c1ccccc1
T/C [5]: 100 % of control
T/C [6]: 98 % of control
T/C [7]: 94 % of control

COC(=O)c1ccc(CSc2ccccc2NC(=S)Nc2cccc(C(F)(F)F)c2)o1
T/C (dose: 6.25 mg/kg/injection, schedule: Q01DX005 (ip), vehicle: saline with Tween-80): 104 % of control
T/C (dose: 12.5 mg/kg/injection, schedule: Q01DX005 (ip), vehicle: saline with Tween-80): 100 % of control
T/C (dose: 25.0 mg/kg/injection, schedule: Q01DX005 (ip), vehicle: saline with Tween-80): 98 % of control

Cc1ccc(S(=O)(=O)OCC(C)(C)COS(=O)(=O)c2ccc(C)cc2)cc1
T/C [21]: 103 % of control
T/C [22]: 103 % of control
T/C [3]: 105 % of control
T/C [4]: 106 % of control

CCC(=O)NC1=C(Cl)C(=O)C(Cl)=C(Cl)C1=O
T/C [21]: 111 % of control
T/C [22]: 103 % of control

O=NN(CCCl)C(=O)Nc1cc(Cl)ccc1O
T/C [5]: 150 % of control
T/C (dose: 50.0 mg/kg/injection, schedule: Q04DX003 (ip), vehicle: saline with Tween-80): 122 % of control

COC(=O)/C(C#N)=C/c1ccc2c(c1)OCO2
T/C [15]: 100 % of control
T/C [16]: 97 % of control
T/C [17]: 100 % of control

CCCn1c(Cl)c(/C=N\Nc2ccc([N+](=O)[O-])cc2)c2ccccc21
T/C [13]: 103 % of control
T/C [14]: 95 % of control
T/C (dose: 400.0 mg/kg/injection, schedule: Q01DX001 (ip), vehicle: saline with Tween-80): 95 % of control

CCOS(=O)(=O)c1ccc(C(=O)O)cc1
T/C [1]: 108 % of control
T/C [2]: 107 % of control
T/C (dose: 200.0 mg/kg/injection, schedule: Q01DX009 (ip), vehicle: saline): 107 % of control

CCCCOC(=O)CC(C(=O)OCCCC)C(C(=O)OCCCC)P(=O)(OCCCC)OCCCC (centres undefined)
T/C [18]: 99 % of control
T/C [19]: 100 % of control
T/C [20]: 98 % of control
